Results: patent US12358954B2, “Capsid-modified rAAV vector compositions and methods therefor” (priority 2012, dated 2025)
Peptide text beside a SMILES is read from it. * marks the point of attachment. Cbz = O=C(OCc1ccccc1)*

What was measured:
HeLa cells [1] = assay: Recombinant AAV2 vector transduction assay in vitro (EGFP imaging); assay type: cell-based, human
Protocol: Recombinant AAV2 Vector Transduction Assays in Vitro. Approximately 1×10^5 HeLa cells were used for transductions with recombinant AAV2 vectors. The transduction efficiency was measured 48-hr post-transduction by EGFP imaging using fluorescence microscopy. Images from three to five visual fields were analyzed quantitatively by ImageJ analysis software (NIH, Bethesda, Md., USA). Transgene expression was assessed as total area of green fluorescence (pixel^2) per visual field (mean±SD). Analysis of variance (ANOVA) was used to compare between test results and the control and they were determined to be statistically significant.
The transduction efficiency of each of the tyrosine-mutant vectors was analyzed and compared with the WT scAAV2-EGFP vector in HeLa cells in vitro under identical conditions. […] Specifically, the transduction efficiency of Y444F, Y500F, Y730F vectors was ˜8- to 11-fold higher than the WT vector.
In a second study, HeLa cells, either mock-treated or treated with Tyr23, a specific inhibitor of EGFR-PTK, or MG132, a proteasome inhibitor, both known to increase the transduction efficiency of AAV vectors, were mock-infected or infected with the WT or Y730F scAAV2-EGFP vectors.

Huh7 cells = assay: AAV3 vector transduction assay in Huh7 cells; assay type: cell-based, human; conditions: increasing concentrations, 2 hr
Protocol: (§1) AAV Vector Transduction Assays. Huh7 or HeLa cells were seeded in 96-well plates at a concentration of 5,000 cells per well in complete DMEM medium. AAV infections were performed in serum- and antibiotic-free DMEM medium. Hep293TT cells were seeded in 96-well plates at a concentration of 10,000 cells per well in complete RPMI medium. The infections were performed in serum- and antibiotic-free RPMI medium. The expression of EGFP was analyzed by direct fluorescence imaging 72 hrs' post-transduction.

Hep293TT cells = assay: AAV3 vector transduction assay in Hep293TT cells; assay type: cell-based, human
Protocol: as §1

HeLa cells [2] = assay: scAAV2 transduction of HeLa cells with MG132 or Tyr23 (positive control); assay type: cell-based, human; conditions: MG132 5 μM; Tyr23 200 μM
Protocol: as §1
Proteasome Inhibitors Increase the Transduction Efficiency of AAV3 Vectors. […] To evaluate whether MG132 can also improve AAV3 trafficking in target cells, Huh7, a well-established human hepatocellular carcinoma cell line (Nakabayashi et al., 1982), and Hep293TT, a recently established human hepatoblastoma cell line (Chen et al., 2009), were either mock-treated or treated with increasing concentrations of MG132. […] Transgene expression was determined by fluorescence microscopy 72 hrs post-transduction.
Previous studies have also shown that inhibition of EGFR-PTK signaling by Tyrphostin 23 (Tyr23), a specific inhibitor of EGFR-PTK (May et al., 1998), modulates the Ub/proteasome pathway, which in turn, facilitates intracellular trafficking and transgene expression mediated by AAV2 vectors (Zhong et al., 2007). […] Transgene expression was determined 72 hr post-transduction.

HEK293 cells = assay: AAV2 vector transduction assay in HEK293 cells (serine mutants, kinase inhibitors); assay type: cell-based, human; conditions: 50 μM, 1 hr; 1,000 vgs per cell
Protocol: Recombinant AAV Vector Transduction Assays In Vitro. HEK293 or monocyte-derived dendritic cells (moDCs), were transduced with AAV2 vectors with 1,000 vgs/cell or 2,000 vgs/cell respectively, and incubated for 48 hr. Alternatively, cells were pretreated with 50 μM of selective serine/threonine kinase inhibitors 2-(2-hydroxyethylamino)-6-aminohexylcarbamic acid tert-butyl ester-9-isopropylpurine (for CaMK-II), anthra[1,9-cd]pyrazol-6(2H)-one, 1,9-pyrazoloanthrone (for JNK), and 4-(4-fluorophenyl)-2-(4-methylsulfinylphenyl)-5-(4-pyridyl)1H-imidazole (for MAPK) (CK59, JNK inhibitor 2, PD 98059, Calbiochem), 1 hr before transduction. Transgene expression was assessed as the total area of green fluorescence (pixel2) per visual field (mean±SD) as described previously (Markusic et al., 2011; Jayandharan et al., 2011). Analysis of variance was used to compare test results and the control, which were determined to be statistically significant.

[3] = test system: monocyte-derived dendritic cells (moDCs); assay: AAV2 vector transduction of monocyte-derived dendritic cells (moDCs); assay type: cell-based, human; conditions: 50 μM, WT scAAV2-EGFP, 48 hrs p.i.
Protocol: Cells and Antibodies. HEK293, HeLa and NIH3T3 cells were obtained from the American Type Culture Collection and maintained as monolayer cultures in DMEM (Invitrogen, Inc.) supplemented with 10% FBS (Sigma-Aldrich Co.) and antibiotics (Lonza, Inc.). Leukapheresis-derived peripheral blood mononuclear cells (PBMCs) (AllCells) were purified on Ficoll-Paque (GEHeathCare), resuspended in serum-free AIM-V medium (Lonza, Inc.), and semi-adherent cell fractions were incubated for 7 days with recombinant human IL-4 (500 U/mL) and GM-CSF (800 U/mL) (R&D Systems). Cell maturation was initiated with a cytokine mixture including 10 ng/mL TNF-α, 10 ng/mL IL-1, 10 ng/mL IL-6, and 1 mg/mL PGE2 (R&D Systems) for 48 hrs. Prior to EGFP expression cells were characterized for co-stimulatory molecules expression to ensure that they met the typical phenotype of mature dendritic cells (mDC) (CD80, RPE, murine IgG1; CD83, RPE, murine IgG1; CD86, FITC, murine IgG1; Invitrogen, Inc.). (Jayandharan et al., 2011)
Recombinant AAV Vector Transduction Assays In Vitro. […] Transgene expression was assessed as the total area of green fluorescence (pixel2) per visual field (mean±SD) as described previously (Markusic et al., 2011; Jayandharan et al., 2011). Analysis of variance was used to compare test results and the control, which were determined to be statistically significant.

human CD34+ cells = assay: Ex vivo transduction of human CD34+ cells by AAV serotype and tyrosine-mutant AAV6 vectors; assay type: cell-based
Protocol: Human bone marrow CD34^+ and umbilical cord blood CD34^+ cells either were purchased from All-Cells (Berkeley, Calif., USA), or were obtained under an institutional review board-approved protocol, and maintained in either StemSpan SFEM medium ([…] Technologies, Inc, Vancouver, BC, CANADA) or IMDM with 10 ng/mL rhIL6 (PeproTech), 10 ng/mL rhIL3 (PeproTech, Rocky Hill, N.J., USA) and 1 ng/mL rhSCF (R&D Systems, Minneapolis, Minn., USA). CD34^+ cell purity was determined by flow cytometry and was >90%. Mouse HSCs, which were positive for Sca-1 and c-kit and negative for lineage markers (c-kit^+, Sca-1^+, lin^−), were isolated from 4-month-old male C57BL/6 mice as previously reported with slight modification. Briefly, femurs and tibias were obtained from C57BL/6 mice, and bone marrow cells were flushed from the bones with phosphate-buffered saline (PBS). […] APC-conjugated CD117 (c-kit) antibody and Alexa Fluor 700 conjugated Sca-1 antibody (Miltenyi Biotec Inc) were used during fluorescence-activated cell sorting (FACS). […]
Ex vivo transduction of HSCs. […] Mock-infected or infected cells were infused into recipient mice immediately after infection, or examined for transgene expression by fluorescence microscopy or by flow cytometry (Accuri C6; BD Biosciences) 48-72 hrs after infection.

CC(C)C[C@@H](C=O)NC(=O)[C@H](CC(C)C)NC(=O)[C@H](CC(C)C)NC(=O)OCc1ccccc1 [MG132] (Cbz-Leu-Leu-Leu-aldehyde) was tested, and the “increase in transduction efficiency of WT scAAV2-EGFP by pretreatment” value (HeLa cells [1]) was ~6 fold, the “transduction efficiency of scAAV3 vectors after treatment” value (Huh7 cells) was “dose-dependent increase” and the “amounts of internalized viral DNA in presence or absence of inhibitor” value (Hep293TT cells) was “no significant difference”. For the same molecule, the “transduction efficiency of scAAV3 vectors after treatment” value (Hep293TT cells; 2 hr treatment) was “dose-dependent increase” and the “transduction efficiency of scAAV2 vectors after pretreatment” value (HeLa cells [2]) was “significantly increased”.

In the case of C[S+]([O-])c1ccc(-c2nc(-c3ccc(F)cc3)c(-c3ccncc3)[nH]2)cc1 (centres unmarked) [p38 MAPK inhibitor, 4-(4-fluorophenyl)-2-(4-methylsulfinylphenyl)-5-(4-pyridyl)1H-imidazole], the “transduction efficiency of ssAAV2 and scAAV2 vectors after inhibitor pre-treatment” value (HEK293 cells) is reported as “most effective”.

In the case of O=C1c2ccccc2-c2n[nH]c3cccc1c23 [JNK inhibitor, anthra[1,9-cd]pyrazol-6(2H)-one, 1,9-pyrazoloanthrone], the “increase of EGFP expression levels by inhibitor pre-treatment” value [3] is reported as ~2 fold.

“epidermal growth factor: epidermal growth factor” was tested, and the “effect on transduction efficiency of AAV6 vectors in CD34+ cells” value (human CD34+ cells) was “no effect”.
